In data set [1] the test system is STZ-treated rats with neuropathy. Briefly: Forced swim test (FST). In kind it is in vivo, rat. The settings on record: 10 mg/kg p.o. once daily from day 28, test on day 41, 5-min test. On the procedure:
(§1) On the day of diabetic state induction, rats were deprived of food for 6 h (from 8 a.m. to 2 p.m.). A single i.p. injection was applied with 55 mg/kg STZ in the ice-cold citrate buffer (0.1 M pH 4.4). The observed polydipsia, polyuria, reduced thriving with lower body weight, and poor coating appearance indirectly indicated the development of diabetes. On day 28, after 6 h of fasting, blood glucose was measured with an Xpress Statstrip Glucometer (Nova Biomedical Corporation, Waltham, MA, USA) from the tail vein. A cut-off value of blood glucose >13 mmol/l was adopted. […] Controls were once i.p. injected with ice-cold citrate buffer 0.1 M pH 4.4 only.
(§2) Three animals per cage were housed for the experiment 2 (Fig. 3B). Rats were gently manipulated daily before undertaking the actual behavior tests. […] Body weight (BW), coat score (CS), CPT, R–S, and FT were evaluated on day 28th post-STZ, and after that, rats were distributed into the treatment groups as follows. • C-Veh – Controls, vehiculum treatment (n = 12) • NP-Veh – STZ-treated rats with neuropathy, vehiculum treatment (n = 12) • NP-KB-R7943 – 5 mg - STZ-treated rats, with neuropathy, KB-R7943 5 mg/kg treatment (n = 12) • NP-KB-R7943 – 10 mg – STZ-treated rats, with neuropathy, KB-R7943 10 mg/kg (n = 12) • NP-AMT – 10 mg - STZ-treated rats, with neuropathy, amitriptyline 10 mg/kg (n = 12). […]

Data set [2] shares this test system. Briefly: 24-hour spontaneous physical activity. The format is in vivo, rat. The settings on record: 10 mg/kg p.o. once daily from day 28, from day 41. On the procedure: as §1, §2
For data set [3] the test system is unchanged. Briefly: Coat state score. The format is in vivo, rat. The settings on record: chronic p.o. treatment from day 28, day 42. On the procedure:
as §1
as §2, with “3B).” for “3B). Rats were gently manipulated daily before undertaking the actual behavior tests.”
Coat state, water consumption, and body weight were evaluated weakly. […] Water consumption was measured per cage. […]

For data set [4] the test system is unchanged. Briefly: Cold plate test. The format is in vivo, rat. The conditions noted are these: 10 mg/kg p.o. once daily, end of the trial. As to the method: as §1
as §2, with “3B).” for “3B). Rats were gently manipulated daily before undertaking the actual behavior tests.”
This test was used for allodynia testing. […] Two independent observers recorded the time-to-paw lifting. […]

Data set [5] has the same test system. Briefly: Paw pressure (Randall-Selitto) test. In kind it is in vivo, rat. The settings on record: 10 mg/kg p.o. once daily, vs. NPveh. On the procedure: as §1, §2
The test system is the same in data set [6]. Briefly: Formalin test (0.5% formalin). In kind it is in vivo, rat. As to the method: as §1
(§3) Three animals per cage were housed for the experiment 2 (Fig. 3B). Rats were gently manipulated daily before undertaking the actual behavior tests. One week after adaptation, the Randl-Stellito (R–S) test, cold plate test (CPT), and formalin tests (FT) were performed at baseline. After that, the diabetes model was made with 48 rats. Twelve animals served as controls. Body weight (BW), coat score (CS), CPT, R–S, and FT were evaluated on day 28th post-STZ, and after that, rats were distributed into the treatment groups as follows. • C-Veh – Controls, vehiculum treatment (n = 12) • NP-Veh – STZ-treated rats with neuropathy, vehiculum treatment (n = 12) • NP-KB-R7943 – 5 mg - STZ-treated rats, with neuropathy, KB-R7943 5 mg/kg treatment (n = 12) • NP-KB-R7943 – 10 mg – STZ-treated rats, with neuropathy, KB-R7943 10 mg/kg (n = 12) • NP-AMT – 10 mg - STZ-treated rats, with neuropathy, amitriptyline 10 mg/kg (n = 12).
OraPlus was used as a vehiculum for gavage (16 gauge feeding tube 10 ml/kg) in all rats. KB-R7943 in two doses (5 or 10 mg/kg) or amitriptyline 10 mg/kg was applied once daily until day 49. Behavior tests were performed […] after the oral gavage of the corresponding day, in the afternoon, starting from 2 p.m. […] On day 41, an FST was performed, and at 2 p.m., rats were placed individually for 24 h to assess spontaneous physical activity. After that, on day 42, the same battery of the tests as on day 28 were reassessed.
The formalin test was performed 1 h after the R–S test to decrease the interaction with the mechanical stimulus from the previous test. For the same reason, the left hind paws were injected. A needle (U-100 Insulin Syringe, Beckton and Dickinson, Dublin, Ireland) was used. A low-dose intraplantar injection of formalin 50 mcl 0.5% was done, and rats were placed in individual transparent cases for observation. Two independent observers measured the time spent licking or biting the injected paw, and the first (0–5 min) and the second post-injection phase (20–30 min) were reported in sec.

For data set [7] the test system is unchanged. Briefly: Mortality and adverse effects during chronic oral treatment. The format is in vivo. The conditions noted are these: p.o. once daily day 28 to 49. As to the method: as §3
OraPlus was used as a vehiculum for gavage (16 gauge feeding tube 10 ml/kg) in all rats. KB-R7943 in two doses (5 or 10 mg/kg) or amitriptyline 10 mg/kg was applied once daily until day 49. Behavior tests were performed […] after the oral gavage of the corresponding day, in the afternoon, starting from 2 p.m. […] On day 41, an FST was performed, and at 2 p.m., rats were placed individually for 24 h to assess spontaneous physical activity. […]

Consider `CN(C)CCC=C1c2ccccc2CCc2ccccc21` [amitriptyline], for which the “immobility time in FST” value in data set [1] stood at 137.50 ± 31.94 s. In addition, the “24-h spontaneous physical activity” value in data set [2] amounted to 1678.33 ± 282.00 beam breaks. Also, the “effect on coat score” value in data set [3] is reported as “ameliorated”. The “effect on cold allodynia (cold plate test)” value in data set [4] is on record as “demonstrated a reversal effect”. The “effect on mechanical allodynia (R–S test)” value in data set [5] is listed as “partly reversed”. Further, the “effect on formalin test first phase (0–5 min)” value in data set [6] (10 mg/kg p.o. once daily, vs. NP-Veh) is reported as “attenuated”. The “effect on formalin test second phase (20–30 min)” value in data set [6] (amitriptyline 10 mg/kg, KB-R7943 5 and 10 mg/kg p.o. once daily, vs. NPveh, dose-dependent) is “attenuated”. Besides, the mortality during treatment result in data set [7] is on record as “No one rat died”.
